Experiments:
[1] = method code SF, from DOI: 10.1016/s0378-5173(98)00231-2
[2] = method code SF-NMR, from DOI: 10.1016/j.jpba.2012.12.010, PMID: 23298914
[3] = method code SF-AS, from DOI: 10.1021/bi00405a042
[4] = method code SF-AS/HPLC, from Ellington, J. J. (1988). Octanol/water partition coefficients for evaluation of hazardous waste land disposal: Selected chemicals. US Environmental Protection Agency, Environmental Research …
[5] = method code SF, from DOI: 10.1248/yakushi1947.93.11_1452, PMID: 4273378
[6] = method code SF-HPLC, from DOI: 10.1177/074823378700300403, PMID: 3433285
[7] = not given; remark: listed apart in the source
[8] = method code SF, from DOI: 10.1038/bjc.1982.190, PMID: 7150475
[9] = method code SF-HPLC, from DOI: 10.1021/jm9509197, PMID: 8648601; conditions: pH 7.4
[10] = not given; remark: listed apart in the source
[11] = method code SF-RC, from DOI: 10.1002/jlcr.2580210110; conditions: pH 7.4
[12] = not given; remark: listed apart in the source
[13] = method code SF-GLC, from DOI: 10.1016/j.chemosphere.2005.05.003, PMID: 15967478
[14] = method code SF-AS, from DOI: 10.1016/0005-2736(69)90054-6, PMID: 5349616; conditions: pH 7.4
[15] = method code SF-HPLC, from DOI: 10.1161/01.res.55.4.513, PMID: 6478555
[16] = method code SF-AS, from DOI: 10.1021/jm00051a006, PMID: 7996541
[17] = method code SF-AS, from DOI: 10.1021/acs.inorgchem.5b01238, PMID: 26280387
[18] = not given; remark: listed apart in the source
[19] = method code SF-HPLC, from DOI: 10.1016/0168-3659(92)90067-2
[20] = method code SF-GLC, from DOI: 10.1021/jm00366a019, PMID: 6644745
[21] = method code SF, from DOI: 10.1016/0378-5173(86)90155-9; conditions: pH 7.0
[22] = method code SF-GLC, from DOI: 10.1021/es60128a001
[23] = method code SF-HPLC, from DOI: 10.1016/j.ejps.2015.05.008, PMID: 25968358; conditions: pH 7.4
[24] = method code SF-AS, from DOI: 10.1039/ft9959100995
[25] = method code SF, from DOI: 10.1021/js9700917, PMID: 9452977; conditions: pH 5.5
[26] = not given; remark: listed apart in the source
[27] = method code SF-AS, from DOI: 10.1016/0006-2952(81)90362-2, PMID: 7271838; conditions: pH 7.5
[28] = not given; remark: listed apart in the source

## OCCCCCCCc1ccccc1
[1]
  logP: 3.59

## COC(=O)[C@@H](N)Cc1ccc(O)c(I)c1
[2]; pH 7.7
  logD: 0.26

## CC(=O)NCCc1ccccc1
[3]
  logP: 1.19

## C#CC(C)(C)NC(=O)c1cc(Cl)cc(Cl)c1
[4]
  logP: 3.43

## CCN(CC)C(=O)c1cccnc1
[5]
  logP: 0.86

## CCN(CC)C(=O)c1ccccc1C
[6]
  logP: 2.02

## CCCCNC(=O)c1cccnc1
[5]
  logP: 0.9

## COC(C)(C(=O)O)c1ccc2ccccc2c1 (stereo not drawn)
other
  logP: 3.18

## Cc1cc(Cl)ccc1OCCCC(=O)O
[7]
  logP: 3.28

## CCCCOCC(O)Cn1ccnc1[N+](=O)[O-] (stereo not drawn)
[8]; pH 7.4
  logD: 1.11

## Nc1c2ncn(C3OC(CO)CC3F)c2nc[n+]1[O-] (stereo not drawn)
[9]
  logD: -0.98

## Nc1ccc2c(S(=O)(=O)O)cc(S(=O)(=O)O)cc2c1
[10]
  logP: -1.6

## FC12CC3CC(CC(C3)C1)C2
[11]
  logD: 5.7

## O=C(C(=O)c1ccc(Cl)cc1)c1ccccc1
[12]
  logP: 2.6

## C=C1CCC2CC1C2(C)C (stereo not drawn)
[13]
  logP: 4.43

## Cc1cc2ccccc2n1C
[14]
  logD: 2.82

## CCNCC(=O)Nc1c(C)cccc1C
[15]
  logP: 1.32

## CO[C@@H]1N([C@H]2C[C@H](N=[N+]=[N-])[C@@H](CO)O2)C(=O)NC(=O)[C@@]1(C)Br
[16]
  logP: 1.22

## O=S(=O)(O)c1ccc(-c2ccc(S(=O)(=O)O)cc2)cc1
[10]
  logP: 0.3

## Cc1cccc(C)c1NC(=O)CN
[15]
  logP: 0.41

## CCSC(=S)C=C(O)c1ccccc1
[17]
  logP: 1.93

## CC(C)(N)Cc1ccc(Cl)cc1
[18]
  logP: 2.6

## CC(=O)NCCc1c[nH]c2ccccc12
[3]
  logP: 1.41

## CC(=O)NC(Cc1ccc(O)cc1)C(N)=O (stereo not drawn)
[19]
  logP: -0.7

## CO[C@H]1N([C@H]2C[C@H](N=[N+]=[N-])[C@@H](CO)O2)C(=O)NC(=O)[C@@]1(C)Cl
[16]
  logP: 0.52

## C=C1C=CC(C(C)C)CC1 (stereo not drawn)
[13]
  logP: 4.59

## COC(=O)[C@@H](N)Cc1cc(I)c(O)c(I)c1
[2]; pH 6.7
  logD: 0.95

## N[C@@H]1C[C@@H]2C[C@H]1c1ccc(C(F)(F)F)cc12
[20]; pH 12.0
  logD: 3.21

## CC(C)(N)Cc1ccccc1
[18]
  logP: 1.9

## O=C(NCc1ccc(O)cc1)c1ccccc1
[21]
  logD: 1.87

## C=Cc1ccc(C=C)cc1
[12]
  logP: 3.2

## CCOP(=S)(OCC)SCn1c(=O)oc2cc(Cl)ccc21
[22]
  logP: 4.3

## CCCCC(=O)c1ccccc1
[23]
  logD: 3.03

## CC(=O)OCCOCn1cnc2c(=O)[nH]c(N)nc21
[24]
  logP: -1.07

## Cc1nc(NS(=O)(=O)c2ccc(N)cc2)oc1C
[25]
  logD: 0.2

## CCOP(=S)(OCC)Oc1ccc(Cl)cc1Cl
[22]
  logP: 5.14

## CC(=O)OC[C@H]1O[C@@H](n2cc(C)c(=O)[nH]c2=O)C[C@@H]1O
[26]
  logP: -0.25

## OCCCCc1ccccc1
[1]
  logP: 2.33

## COc1ccc(C[C@H](NC(C)=O)C(=O)N[C@H](Cc2ccc(OC)cc2)C(N)=O)cc1
[19]
  logP: 1.19

## COP(=S)(OC)SCn1nnc2ccccc2c1=O
[6]
  logP: 2.43

## CCCCOC(=O)c1ccc(O)cc1
[27]
  logD: 3.32

## FC(F)(c1ccccc1)C(F)(F)c1ccccc1
[11]
  logD: 5

## COC(=O)c1ccccc1C(=O)OC
[28]
  logP: 1.9

## c1ccc2c(c1)[nH]c1ccccc12
[14]
  logD: 3.29

## CCCCCCOC(=O)c1ccccc1C(=O)OCCCCCC
[28]
  logP: 5.8

## CNC1CC2c3ccccc3C1C2O (stereo not drawn)
[20]; pH 13.0
  logD: 0.91

## c1ccc2c(c1)Nc1ccccc1S2
[23]
  logD: 3.97

## CCCCOC(=O)c1ccc(N)cc1
[27]
  logD: 3.05

## CC(=O)Nc1ncc2ncn(COCCO)c2n1
[24]
  logP: -1.33

## O=[N+]([O-])c1ncnc2c1ncn2C1OC(CO)CC1F (stereo not drawn)
[9]
  logD: -0.4

## O=[N+]([O-])c1nccn1CC(O)CN1CCCCC1 (stereo not drawn)
[8]
  logP: 0.93

## O=C(O)c1ccc2ccccc2c1
other
  logP: 3.1

## CCSC(=S)C=C(O)c1ccc(O)cc1
[17]
  logP: 1.97

## NS(=O)(=O)c1ncncc1-c1ccccc1
[25]
  logD: 0.5

## CS(=O)CCCOc1ccc([N+](=O)[O-])cc1 (stereo not drawn)
[21]
  logD: 0.93

## Cc1cc(Cl)ccc1OC(C)C(=O)O (stereo not drawn)
[7]
  logP: 2.95

## Cc1cn([C@H]2C[C@H](N=[N+]=[N-])[C@@H](CO)O2)c(=O)[nH]c1=O
[26]
  logP: -0.09

## CC(C)N(C(=O)SC/C(Cl)=C/Cl)C(C)C
[4]
  logP: 4.49
